Results taken from patent publication US12396996B2, “Compounds, pharmaceutical compositions, and methods of their use in reversing cancer chemoresistance” (priority 2019, dated 2025).

Columns and labels:
Suv39H1 and Suv39H2 = details: cited from earlier work
HMLE-TWIST cells [1] = experiment: CD44/CD24 FACS analysis after chaetocin pulse and washout; type: cell-based, human
Protocol: Cultured mesenchymal, TIC-rich HMLE-TWIST cells were treated with increasing concentrations of chaetocin for 2 days, washed and then incubated in chaetocin-free media for two days. CD44/CD24 FACS analyses were performed either immediately or two days after chaetocin removal.
CD44/CD24 FACS analyses either were performed either immediately or 6 days after chaetocin removal.
To determine whether a short pulse of the Suv39H1/H2 inhibitor, chaetocin, is sufficient to bring about an epigenetic change, cultured HMLE-TWIST cells (also referred to as ‘HMLE-TWIST TICs’ or ‘TICs’) were exposed to different doses of chaetocin for two days, followed by washout, and replacement with regular media. Cells were tracked for their phenotypic fate (e.g., CD44/CD24 marker expression) for another two or 6 days in chaetocin-free media. In this cell line, high CD44 and low CD24 expression indicate TIC cell populations. Cells that express CD24 are considered non-TICs. […] Next, to determine whether the epigenetic change persists for periods longer than two days, a separate experiment was performed in which HMLE-TWIST cells were treated with chaetocin for two days, followed by FACS analysis of CD24/CD44 expression either immediately after or 6 days after, as schematized in the top panel of FIG. 3M.

HMLE-TWIST cells [2] = experiment: RNA-seq after two days of chaetocin and two days after removal (Enrichr); type: cell-based, human; details: versus DMSO, cells found to have mycoplasma infection
Protocol: Briefly, HMLE-TWIST cells were treated for two days with increasing doses of chaetocin (0.1, 0.15, 0.2, 0.5 uM). The cells were then washed and incubated for an additional 2 days in chaetocin-free media. Cells were collected before chaetocin treatment and at the 2-day and 4-day timepoints. Total RNA was extracted and subjected to deep sequencing. All chaetocin-treated transcriptomes were compared to cells treated with DMSO for 2 and 4 days which served as controls.
Using FACS (see FIGS. 3A-3X), it was shown that mesenchymal, TIC-rich HMLE-TWIST cells treated with increasing doses of chaetocin lose their mesenchymal properties. […] All transcriptomes were compared to the corresponding DMSO-treated controls.
The results for two representative chaetocin concentrations ([…]) are shown. Other concentrations produced a highly similar list of pathways. Only pathways whose enrichment is associated with an adjusted p value of less than 0.05 are indicated. Pathways listed in italicized font are those which have a known role in promoting the formation of the mesenchymal state in published literature. The pathways marked with an asterisk in tables above are those having known roles as tumor suppressors.
The results for two representative chaetocin concentrations ([…]) are shown. Other concentrations produced a highly similar list of pathways. […]

[3] = tested on: TICs (cancer stem/progenitor cells); experiment: Tumorsphere assay; type: cell-based; details: 0, 30, 80 nM; 14 days of culture
Source text: FIGS. 1F-1I show the results of a 3-D tumor spheroid assay formed by the chemotherapy-resistant breast cancer cell line, HMLE-SNAIL. […] Tumor spheroids are a model of real in vivo tumors, as they form a 3-D cell mass in which the hypoxic and often nutrient depleted microenvironment at the center of the tumor is enriched with mesenchymal, chemotherapy-resistant TIC cells. […] By staining spheroids with Sytox, which stains dead cells green, and DAPI, which stains the nuclei of all cells (living or dead), total fraction of dead cells is calculated. Also, the location of dead cells within the sphere is visualized with Sytox (green) staining. The results of FIGS. 1F-1I indicate that chaetocin a selective and potent killer of inner cells of the spheroids, enriched with mesenchymal, chemotherapy-resistant TIC cells, compared to other compounds tested. FIGS. 1J-1K show the results of a tumorsphere assay performed with TICs grown on serum-free, non-adherent culture conditions. […] The results of FIGS. 1J-1K indicate that chaetocin is effective in eliminating TICs in a dose dependent-manner.
To further determine the effect of chaetocin on eliminating TICs, a tumorsphere assay was performed on cancer cells under increasing concentrations of chaetocin. A tumorsphere is a solid spherical formation developed from the proliferation of one cancer stem/progenitor cell. […]

CN1C(=O)[C@@]23C[C@]4([C@]56C[C@@]78SS[C@](CO)(C(=O)N7[C@H]5Nc5ccccc56)N(C)C8=O)c5ccccc5N[C@@H]4N2C(=O)[C@@]1(CO)SS3 [chaetocin]
inhibitor specificity (Suv39H1 and Suv39H2): specific inhibitor of Suv39H1 and Suv39H2 heterochromatin proteins | CD44/CD24 phenotype (TIC to non-TIC) (HMLE-TWIST cells [1]; 0.1, 0.15, 0.2, 0.5 μM for two days, immediately after treatment): converts TICs into non-TICs in a dose dependent manner | persistence of TIC to non-TIC conversion (HMLE-TWIST cells [1]; two or 6 days in chaetocin-free media): persist for up to six days after chaetocin removal | pathways changed after two days of treatment (HMLE-TWIST cells [2]; 0.1, 0.15, 0.2, 0.5 uM for two days): repression of several mesenchymal pathways and an increase in DNA repair and two important tumor suppressing pathways, p53 and Rb | persistence of transcriptional changes (HMLE-TWIST cells [2]; 2 days after chaetocin removal): transcriptional changes persist after chaetocin removal | number of tumorspheres per well [3]: can eliminate TICs at low doses
